# Source: US9024044B2, “Heteroarylcarboxylic acid ester derivative” (Ajinomoto Co., Inc., priority 2012, dated 2015)
# Where a name gives a salt, the structure may show the parent alone.
# Assays:
# [1] = biological target: human trypsin (Homo sapiens, UniProt P07477); experiment: Measurement of trypsin inhibitory activity; type: biochemical; conditions: substrate Boc-Phe-Ser-Arg-AMC, Tris-HCl pH 8.0, Dixon plot
# Procedure: Measurement of Trypsin Inhibitory Activity
# Using a 96 well plate (#3915, Costar), a test compound (25 μL) was mixed with 20 μM fluorescence enzyme substrate (Boc-Phe-Ser-Arg-AMC, 50 μL) mixed with 200 mM Tris-HCl buffer (pH 8.0), and human trypsin (Sigma, 25 μL) was added. Using a fluorescence plate reader fmax (Molecular Devices, Inc.), the reaction rate was measured from the time-course changes at excitation wavelength 355 nm and fluorescence wavelength 460 nm. The Ki value was calculated from the concentration of the test compound, reciprocal of reaction rate, and Km value of the enzyme substrate, and by using Dixon plot.
# [2] = biological target: recombinant human enteropeptidase (Homo sapiens (Human), UniProt P98073); experiment: Measurement of enteropeptidase inhibitory activity; type: biochemical; conditions: substrate Gly-Asp-Asp-Asp-Asp-Lys-β-Naphtylamide, Tris-HCl pH 8.0, Dixon plot
# recombinant human enteropeptidase, sequence (P98073 whole entry): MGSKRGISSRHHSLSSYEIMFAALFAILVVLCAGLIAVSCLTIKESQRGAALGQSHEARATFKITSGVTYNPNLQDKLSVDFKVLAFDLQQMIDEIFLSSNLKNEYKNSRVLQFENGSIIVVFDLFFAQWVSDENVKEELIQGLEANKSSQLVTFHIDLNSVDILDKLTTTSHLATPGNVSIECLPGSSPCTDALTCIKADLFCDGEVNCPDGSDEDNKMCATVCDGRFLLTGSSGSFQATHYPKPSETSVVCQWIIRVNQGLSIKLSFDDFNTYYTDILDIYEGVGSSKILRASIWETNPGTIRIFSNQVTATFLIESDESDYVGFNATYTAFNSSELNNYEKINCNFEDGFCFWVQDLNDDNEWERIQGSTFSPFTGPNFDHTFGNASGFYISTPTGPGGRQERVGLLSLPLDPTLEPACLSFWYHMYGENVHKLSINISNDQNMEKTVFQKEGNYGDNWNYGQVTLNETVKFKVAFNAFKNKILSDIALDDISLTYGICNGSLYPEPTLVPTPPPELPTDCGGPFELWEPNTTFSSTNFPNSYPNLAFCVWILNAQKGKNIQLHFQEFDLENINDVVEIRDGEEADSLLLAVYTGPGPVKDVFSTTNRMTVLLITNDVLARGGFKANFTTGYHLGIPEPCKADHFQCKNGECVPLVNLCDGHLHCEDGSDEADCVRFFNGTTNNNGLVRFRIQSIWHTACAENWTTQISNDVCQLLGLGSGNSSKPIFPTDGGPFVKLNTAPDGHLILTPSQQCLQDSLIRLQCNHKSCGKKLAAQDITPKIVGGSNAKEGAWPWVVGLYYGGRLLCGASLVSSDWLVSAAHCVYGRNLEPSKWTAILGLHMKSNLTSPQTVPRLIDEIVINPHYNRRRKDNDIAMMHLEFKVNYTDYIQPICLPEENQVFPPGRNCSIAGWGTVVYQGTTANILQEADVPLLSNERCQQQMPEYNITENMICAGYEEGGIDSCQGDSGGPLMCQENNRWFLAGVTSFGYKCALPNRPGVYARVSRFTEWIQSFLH
# Procedure: Measurement of Enteropeptidase Inhibitory Activity
# Using a 96 well plate (#3915, Costar), a test compound (25 μL), 400 mM Tris-HCl buffer (pH 8.0, 25 μL) and 0.5 mg/mL fluorescence enzyme substrate (Gly-Asp-Asp-Asp-Asp-Lys-β-Naphtylamide, 25 μL) were mixed, and recombinant human enteropeptidase (R&D Systems, Inc., 25 μL) was added. Using a fluorescence plate reader fmax (Molecular Devices, Inc.), the reaction rate was measured from the time-course changes at excitation wavelength 320 nm and fluorescence wavelength 405 nm. The Ki value was calculated from the concentration of the test compound, reciprocal of reaction rate, and Km value of the enzyme substrate, and by using Dixon plot.
SMILES,Ki [1] [nM],Ki [2] [nM]
CC(C)(Cc1ccc(C(=O)Oc2ccc(C(=N)N)cc2F)s1)C(=O)N[C@H](C(=O)O)c1ccccc1 [Compound 37],1.51,0.96
CCC(CC)(Cc1ccc(C(=O)Oc2ccc(C(=N)N)cc2F)s1)C(=O)N[C@H](CC(=O)O)C(=O)O [Compound 25],1.04,0.26
CCC(CC)(Cc1ccc(C(=O)Oc2ccc(C(=N)N)cc2F)s1)C(=O)NCCC(=O)O [Compound 14],2.5,0.99
CC(C)(Cc1ccc(C(=O)Oc2ccc(C(=N)N)cc2F)s1)C(=O)NC(CCC(=O)O)(CCC(=O)O)CCC(=O)O [Compound 58],1.59,0.71
CCCN(CC(=O)O)C(=O)C(CC)(CC)Cc1ccc(C(=O)Oc2ccc(C(=N)N)cc2F)s1 [Compound 20],7.91,2.61
CCC(CC)(Cc1ccc(C(=O)Oc2ccc(C(=N)N)cc2F)s1)C(=O)Nc1cc(C(=O)O)cc(C(=O)O)c1 [Compound 66],1.58,0.71
CC(C)(Cc1ccc(C(=O)Oc2ccc(C(=N)N)cc2F)s1)C(=O)N[C@@H](C(=O)O)c1ccccc1 [Compound 38],1.45,0.97
"N=C(N)c1ccc(OC(=O)c2ccc(CC3(C(=O)N[C@@H](CC(=O)O)C(=O)O)CCCC3)s2)c(F)c1 [Compound 2, N-{1-[5-(4-amidino-2-fluorophenoxycarbonyl)thiophen-2-ylmethyl]-2-cyclopentylcarbonyl}-1-aspartic acid trifluoroacetic acid salt]",4.1,0.73
CN(CC(=O)O)C(=O)C(C)(C)Cc1ccc(C(=O)Oc2ccc(C(=N)N)cc2F)s1 [Compound 7],1.33,0.41
CC(C)(Cc1ccc(C(=O)Oc2ccc(C(=N)N)cc2F)s1)C(=O)NC(C)(C)C(=O)O [Compound 6],0.95,0.69
CC(C)(Cc1ccc(C(=O)Oc2ccc(C(=N)N)cc2F)s1)C(=O)Nc1cc(C(=O)O)cc(C(=O)O)c1 [Compound 59],0.49,0.31
CCC(CC)(Cc1ccc(C(=O)Oc2ccc(C(=N)N)cc2F)s1)C(=O)N[C@H](C(=O)O)C(C)O (stereo partly drawn) [Compound 15],1.74,0.84
"CC(C)[C@H](NC(=O)C(C)(C)Cc1ccc(C(=O)Oc2ccc(C(=N)N)cc2F)s1)C(=O)O [Compound 9, N-{3-[5-(4-amidino-2-fluoro-phenoxycarbonyl)thiophen-2-yl]-2,2-dimethylpropionyl}-1-valine hydrochloride]",2.02,0.79
CC(C)(Cc1ccc(C(=O)Oc2ccc(C(=N)N)cc2F)s1)C(=O)N[C@H]1CC[C@@H](C(=O)O)CC1 [Compound 70],1.7,1.11
CCC(CC)(Cc1ccc(C(=O)Oc2ccc(C(=N)N)cc2F)s1)C(=O)N1CCC[C@H]1C(=O)O [Compound 17],6.38,1.69
CCC(CC)(Cc1ccc(C(=O)Oc2ccc(C(=N)N)cc2F)s1)C(=O)N[C@@H](C)C(=O)O [Compound 27],1.67,0.73
CC(C)(Cc1ccc(C(=O)Oc2ccc(C(=N)N)cc2F)s1)C(=O)N1CC[C@@H](C(=O)O)C1 [Compound 33],2,1.02
CC(C)(Cc1ccc(C(=O)Oc2ccc(C(=N)N)cc2F)s1)C(=O)Nc1ccc[nH]c1=O [Compound 40],4.54,6.66
CC(C)(Cc1ccc(C(=O)Oc2ccc(C(=N)N)cc2F)s1)C(=O)N[C@H](C(=O)O)C1CCCCC1 [Compound 35],3.04,2.56
"CCC(CC)(Cc1ccc(C(=O)Oc2ccc(C(=N)N)cc2F)s1)C(=O)N(C)CC(=O)O [Compound 21, N-{3-[5-(4-amidino-2-fluoro-phenoxycarbonyl)thiophen-2-yl]-2,2-diethylpropionyl}-sarcosine hydrochloride]",1.76,0.88
CC(C)(Cc1ccc(C(=O)Oc2ccc(C(=N)N)cc2F)s1)C(=O)N1C[C@H]1C(=O)O [Compound 61],0.96,1.13
